Assay results published in patent publication US20230192722A1, “SALTS AND SOLID FORMS OF AN FGFR INHIBITOR AND PROCESSES OF PREPARING THEREOF” (Incyte Corporation, priority 2021, published 2023).

Experiments:
Assay type in all cases: physicochemical
[1] = Solubility measurement of Compound 1 Phosphate, saturated in different solvent systems, measured by HPLC
Experimental: The Compound 1 Phosphate sample was saturated in different solvent systems (Table 4) at 25° C. and 50° C., respectively. Each solubility was measured by HPLC.

[2] = Phase equilibration of form mixtures, relative stability of Compound 1 Phosphate forms (XRPD); conditions: mixture of Forms I, II
Experimental: The relative stability of the three forms (Forms I, II, and III) as well as amorphous form of Compound 1 Phosphate studied and compared by phase equilibration of mixture experiments in EtOH and in a mixture solvent of EtOH/H2O (9/1). As summarized in Table 16, Compound 1 Phosphate (Form I) was mixed and slurred with other forms in EtOH and in a mixed solvent of EtOH/H2O (9/1) at 50° C. for 6 h respectively.

[3] = Solubility measurement of Compound 1 Phosphate, saturated in different solvent systems, measured by HPLC; conditions: DCM, 50° C. column, measured at 40° C.

In the case of `COc1cc2[nH]nc(-c3ccc(N4CCN5C[C@H](O)C[C@H]5C4)nc3)c2nc1-c1cccc(C)c1C.O=P(O)(O)O` [Compound 1 Phosphate, (7R,8aS)-2-(5-(5-(2,3-dimethylphenyl)-6-methoxy-1H-pyrazolo[4,3-b]pyridin-3-yl)pyridin-2-yl)octahydropyrrolo[1,2-a]pyrazin-7-ol phosphate], the Solubility ([1]; 1,4-dioxane, 25° C.) is reported as 150 µg/mL, the Solubility ([1]; 1,4-dioxane, 50° C.) is reported as 230 µg/mL and the Solubility ([1]; 2-Butanone, 25° C.) is reported as 100 µg/mL. The Solubility ([1]; 2-Butanone, 50° C.) was 130 µg/mL, the Solubility ([1]; Acetone, 25° C.) was 70 µg/mL and the Solubility ([1]; Acetone, 50° C.) was 100 µg/mL. The Solubility ([1]; CH3CN, 25° C.) was less than 10 µg/mL, the Solubility ([1]; CH3CN, 50° C.) was 10 µg/mL and the Solubility ([1]; CHCl3, 25° C.) was 60 µg/mL. The Solubility ([1]; CHCl3, 50° C.) was 130 µg/mL, the Solubility ([1]; DCM, 25° C.) was 30 µg/mL and the Solubility ([1]; DMF, 25° C.) was 14410 µg/mL. For the same compound, the Solubility ([1]; DMF, 50° C.) was 19060 µg/mL, the Solubility ([1]; DMSO, 25° C.) was 33740 µg/mL and the Solubility ([1]; DMSO, 50° C.) was 44990 µg/mL. For the same compound, the Solubility ([1]; EtOAc, 25° C.) was 50 µg/mL, the Solubility ([1]; EtOAc, 50° C.) was 60 µg/mL and the Solubility ([1]; EtOH, 25° C.) was 530 µg/mL. It also gave a Solubility ([1]; EtOH, 50° C.) of 680 µg/mL, a Solubility ([1]; Ethyl formate, 25° C.) of 120 µg/mL and a Solubility ([1]; Ethyl formate, 50° C.) of 140 µg/mL. For the same compound, the Solubility ([1]; H2O, 25° C.) was 260 µg/mL, the Solubility ([1]; H2O, 50° C.) was 1100 µg/mL and the Solubility ([1]; Heptane, 25° C.) was less than 10 µg/mL. For the same compound, the Solubility ([1]; Heptane, 50° C.) was less than 10 µg/mL, the Solubility ([1]; IPA, 25° C.) was 230 µg/mL and the Solubility ([1]; IPA, 50° C.) was 280 µg/mL. It also gave a Solubility ([1]; IPAc, 25° C.) of 20 µg/mL, a Solubility ([1]; IPAc, 50° C.) of 30 µg/mL and a Solubility ([1]; MIBK, 25° C.) of 160 µg/mL. It also gave a Solubility ([1]; MIBK, 50° C.) of 160 µg/mL, a Solubility ([1]; MTBE, 25° C.) of 60 µg/mL and a Solubility ([1]; MTBE, 50° C.) of 70 µg/mL. It also gave a Solubility ([1]; MeOEtOH, 25° C.) of 4140 µg/mL, a Solubility ([1]; MeOEtOH, 50° C.) of 5570 µg/mL and a Solubility ([1]; MeOH, 25° C.) of 2260 µg/mL. The Solubility ([1]; MeOH, 50° C.) was 2440 µg/mL, the Solubility ([1]; THF, 25° C.) was 60 µg/mL and the Solubility ([1]; THF, 50° C.) was 70 µg/mL. For the same compound, the Solubility ([1]; Toluene, 25° C.) was less than 10 µg/mL, the Solubility ([1]; Toluene, 50° C.) was 20 µg/mL and the “Solubility (almost insoluble)” value ([1]; in CH3CN, CHCl3, DCM, 1,4-dioxane, MIBK, toluene, THF, acetone, n-BuOH, MTBE, EtOH, EtOAc, ethyl formate, heptane, iso-butyl acetate, IPAc, n-PrOH, IPA, MEK at 25° C. and 50° C., and in H2O at 25° C.) was less than 1000 µg/mL. For the same compound, the “Solubility (relatively good solubility)” value ([1]; in DMF and DMSO, at both 25° C. and 50° C.) was greater than 10000 µg/mL, the “Solubility (slightly soluble)” value ([1]; in MeOH and MeOEtOH at 25° C. and 50° C., and in H2O at 50° C.) was 1000 to 10000 µg/mL and the Solubility ([1]; iso-Butyl acetate, 25° C.) was 110 µg/mL. For the same compound, the Solubility ([1]; iso-Butyl acetate, 50° C.) was 150 µg/mL, the Solubility ([1]; n-BuOH, 25° C.) was 360 µg/mL and the Solubility ([1]; n-BuOH, 50° C.) was 470 µg/mL. For the same compound, the Solubility ([1]; n-PrOH, 25° C.) was 400 µg/mL, the Solubility ([1]; n-PrOH, 50° C.) was 400 µg/mL and the “Product Solid Form” value ([2]; III and Amorphous slurried in EtOH at 50° C. for 6 h) was “transformed to Form I”. For the same compound, the “Product Solid Form” value ([2]; III and Amorphous slurried in EtOH/H2O (9/1) at 50° C. for 6 h) was “transformed to Form I” and the Solubility [3] was 0.05 (40° C.) mg/mL.
